Assay in all cases: NCI tumour cell line growth inhibition, 48 h
The subject of experiment [1] is U-251.
For experiment [2], the system named is HCC 2998.
Experiment [3] has as its system SF-268.
In experiment [4] the test system is OVCAR-3.
For experiment [5], the system named is UACC-62.
Experiment [6] has as its system OVCAR-8.
Experiment [7] concerns LOX IMVI.
The subject of experiment [8] is EKVX.
Experiment [9] has as its system SK-OV-3.
Experiment [10] has as its system MOLT-4.
The subject of experiment [11] is SF-295.
The subject of experiment [12] is SNB-19.
Experiment [13] has as its system NCI-H23.
For experiment [14], the system named is SN12C.
Experiment [15] deals with UACC-257.
In experiment [16] the test system is A498.
The subject of experiment [17] is COLO 205.
Experiment [18] relates to CAKI-1.
In experiment [19] the test system is SNB-75.
Experiment [20] has as its system IGROV-1.

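How tested: cells in 96-well plates exposed to compound for 48 hours at five concentrations. GI50 is the concentration that inhibits growth by half.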 Activity calls are given as the source filed them. Rule as the data show it: active = GI50 up to about 1.1 µM and inactive = higher. Where only a bound is given, the exact number is not on record here.

The source of these data is ChEMBL document CHEMBL1201862, “PubChem BioAssay data set” (2004).

Consider `O=[N+]([O-])/C(C(Cl)=C(Cl)Cl)=C1\Nc2ccccc2O1`, for which the GI50 in experiment [1] was > 100 µM (inactive); in experiment [2], > 100 µM (inactive); in experiment [3], > 100 µM (inactive); in experiment [4], 23.4 µM (inactive); in [5] it was 9.16 µM (inactive); in experiment [6] it was 25.2 µM (inactive). Besides, the GI50 in experiment [7] was > 100 µM (inactive); in [8], > 100 µM (inactive); in experiment [9], > 100 µM (inactive); in experiment [10], 29.6 µM (inactive); in [11] it was > 100 µM (inactive); in [12], > 100 µM (inactive). The GI50 was 67.3 µM (inactive) in [13]; 45.9 µM (inactive) in experiment [14]; > 100 µM (inactive) in [15]; > 100 µM (inactive) in [16]; 60.1 µM (inactive) in experiment [17]; > 100 µM (inactive) in experiment [18]. For the same molecule, the figures for the GI50 in experiment [19] and in experiment [20] were 15.7 µM (inactive) and 43.7 µM (inactive), respectively.
On to `COn1oc(=O)c2ccccc21`, for which the GI50 in experiment [1], in experiment [2], in experiment [3], in [4], in experiment [5] and in experiment [6] was > 100 µM (inactive) throughout. The GI50 in [7], in [8], in experiment [9], in experiment [10], in experiment [11] and in experiment [12] was > 100 µM (inactive) in each case. Besides, the GI50 in [13], in [14], in experiment [15], in experiment [16], in experiment [17] and in experiment [18] was > 100 µM (inactive) throughout. Further, the GI50 in [19] and in experiment [20] was > 100 µM (inactive) in each case.
For the molecule `CCOC(=O)CC1(c2cccc3ccccc23)OC(=O)c2ccccc21` (stereo not given), the GI50 in experiment [1] was 68.4 µM (inactive); in experiment [2], 62.5 µM (inactive); in [3], 32.7 µM (inactive); in [4], 33.6 µM (inactive); in experiment [5] it was 57.7 µM (inactive); in experiment [6], 45.5 µM (inactive). Further, the GI50 is 60.4 µM (inactive) in [7]; 63.2 µM (inactive) in experiment [8]; > 100 µM (inactive) in experiment [9]; 25.4 µM (inactive) in experiment [10]; 34.4 µM (inactive) in experiment [11]; 50.9 µM (inactive) in [12]. The GI50 is 20.3 µM (inactive) in experiment [13]; 43.1 µM (inactive) in experiment [14]; 56.4 µM (inactive) in [15]; 23.6 µM (inactive) in [16]; 30.4 µM (inactive) in [17]; 57.7 µM (inactive) in [18]. The GI50 in experiment [19] was 14 µM (inactive); in [20] it was > 100 µM (inactive).
Regarding `CN(C)CN(C)c1nc(N(C)C)nc(N(C)CN(C)C)n1`, the GI50 in [1] was > 100 µM (inactive); in experiment [2], > 100 µM (inactive); in experiment [3], 51.6 µM (inactive); in experiment [4] it was > 100 µM (inactive); in experiment [5], 19.8 µM (inactive); in experiment [6], 27.9 µM (inactive). The GI50 in experiment [7] was 22.9 µM (inactive); in experiment [8] it was > 100 µM (inactive); in experiment [9], > 100 µM (inactive); in experiment [10], 26.2 µM (inactive); in [11] it was > 100 µM (inactive); in [12], > 100 µM (inactive). Moreover, the GI50 in experiment [13] was 27.2 µM (inactive); in experiment [14], 63.5 µM (inactive); in experiment [15] it was 34.7 µM (inactive); in experiment [16] it was > 100 µM (inactive); in [17], 27.8 µM (inactive); in experiment [18], > 100 µM (inactive). Moreover, the GI50 in experiment [19] was 60.3 µM (inactive); in [20], > 100 µM (inactive).
On to `CC(C)(C)c1ccc2c(c1)OP1(Oc3cccc4cccnc34)(O2)Oc2ccc(C(C)(C)C)cc2O1`, for which the GI50 in [1] was 7 µM (inactive); in experiment [2] it was 9.89 µM (inactive); in experiment [3], 6.56 µM (inactive); in experiment [4] it was 1.79 µM (inactive); in experiment [5], 3.26 µM (inactive); in experiment [6] it was 3.92 µM (inactive). Moreover, the GI50 in experiment [7] was 3.68 µM (inactive); in experiment [8] it was 3.08 µM (inactive); in [9], 48.2 µM (inactive); in experiment [10], 0.57 µM (active); in [11], 4.19 µM (inactive); in experiment [12], 14.2 µM (inactive). The GI50 in experiment [13] was 3.05 µM (inactive); in experiment [14], 12.8 µM (inactive); in experiment [15] it was 2.54 µM (inactive); in [16], 9.31 µM (inactive); in experiment [17] it was 2.85 µM (inactive); in experiment [18] it was 12.2 µM (inactive). Besides, the GI50 is 15.7 µM (inactive) in [19] and 3.88 µM (inactive) in experiment [20].
For the molecule `O=C(NC(Cc1ccc(I)cc1)C(=O)O)c1cccc(Br)c1` (stereo not given), the GI50 was 78.3 µM (inactive) in experiment [1]; 22.4 µM (inactive) in [2]; > 100 µM (inactive) in experiment [3]; 54.6 µM (inactive) in experiment [4]; 50.6 µM (inactive) in experiment [5]; > 100 µM (inactive) in experiment [6]. The GI50 is > 95.9 µM (inactive) in [7]; > 61.7 µM (inactive) in [8]; > 100 µM (inactive) in experiment [9]; 33.7 µM (inactive) in experiment [10]; > 100 µM (inactive) in experiment [11]; 99.1 µM (inactive) in [12]. Moreover, the GI50 in [13], in experiment [14], in experiment [15], in experiment [16], in experiment [17] and in experiment [18] was > 100 µM (inactive) throughout. In addition, the figures for the GI50 in [19] and in experiment [20] were 39.2 µM (inactive) and > 100 µM (inactive), respectively.
As for `COc1cc2c(cc1OCCCC(=O)Nc1cc(C(=O)Nc3cc(C(=O)Nc4cc(C(=O)NCCCN(C)C)n(C)n4)n(C)n3)n(C)n1)N=CC1CCCN1C2=O` (stereo not given), the GI50 in experiment [1] was 9.77 µM (inactive); in [2], 41.9 µM (inactive); in experiment [3] it was 31.2 µM (inactive); in experiment [4], 29.9 µM (inactive); in experiment [5], 20.3 µM (inactive); in experiment [6] it was 32 µM (inactive). In addition, the GI50 in [7] is 3.07 µM (inactive); in experiment [8] it was > 100 µM (inactive); in experiment [9] it was 45.2 µM (inactive); in experiment [10], 3.01 µM (inactive); in experiment [11] it was 32.5 µM (inactive); in experiment [12], 18.3 µM (inactive). Besides, the GI50 in experiment [13] is 26.5 µM (inactive); in experiment [14], 21.1 µM (inactive); in experiment [15] it was 19 µM (inactive); in experiment [16], 23 µM (inactive); in [17] it was 3.53 µM (inactive); in [18], 18.2 µM (inactive). For the same molecule, the GI50 in [19] was 27.9 µM (inactive); in experiment [20], 2.96 µM (inactive).
On to `Cc1c(N)nc([C@H](CC(N)=O)NC[C@H](N)C(N)=O)nc1C(=O)N[C@H](C(=O)N[C@H](C)[C@@H](O)CC(=O)N[C@H](C(=O)NC(O[C@@H]1O[C@@H](C)[C@@H](N)[C@@H](O)[C@H]1O)C(O)c1nc(-c2nc(C(=O)NCCCCN)cs2)cs1)[C@@H](C)O)[C@@H](O[C@@H]1O[C@@H](CO)[C@@H](O)[C@H](O)[C@@H]1O[C@H]1O[C@H](CO)[C@@H](O)[C@H](OC(N)=O)[C@@H]1O)c1c[nH]cn1` (stereo not given in full), for which the GI50 in experiment [1] was > 50 µM (inactive); in [2] it was 0.134 µM (active); in experiment [3], 16.1 µM (inactive); in [4], > 48.1 µM (inactive); in experiment [5] it was 11.9 µM (inactive); in experiment [6], 12.6 µM (inactive). For the same molecule, the GI50 is 2.89 µM (inactive) in experiment [7]; > 50 µM (inactive) in experiment [8]; > 50 µM (inactive) in [9]; > 39.9 µM (inactive) in [10]; 1.14 µM (inactive) in experiment [11]; > 50 µM (inactive) in [12]. Besides, the GI50 in experiment [13] was 5.73 µM (inactive); in [14], 16.5 µM (inactive); in experiment [15], > 50 µM (inactive); in [16], > 50 µM (inactive); in experiment [17] it was > 50 µM (inactive); in [18], 5.85 µM (inactive). Further, the values for the GI50 in [19] and in [20] were 6.73 µM (inactive) and 16 µM (inactive), respectively.
